Where two headings read alike, the source gives them in different places.
Key:
[1] = system: wild strain of HIV-1 NL4-3; test: Inhibition of viral proliferation on culture cells (MT-4, MTT), wild strain; assay type: cell-based
Procedure: (§1) The biological activity of the compounds was evaluated on lymphoid cell lines MT-4 against the wild strain of HIV-1 NL4-3. The MT-4 cells were briefly infected with the appropriate HIV-1 or the infection was simulated to determine the cytoxicity, in the presence of different concentrations of potential inhibitor compounds. 5 days after the infection a colorimetric method was used that involves using a tetrazole salt (MTT) to evaluate the number of surviving cells. The mutant IRLL98 HIV-1 contains the following mutations in the coding sequence for RT:M41L, D67N, Y181C, M184V, R211K, T215Y (resistance to NRTI) and the mutations K101Q, Y181C, G190A (resistance to NNRTI). The H1V-1 mutants containing multi-NNRTI mutations, K103N or Y188L as mutants were supplied by the Medical Research Council Centralised Facility for AIDS Reagents, Herfordshire, UK.

HIV-1 mutant K103N = test: Inhibition of viral proliferation on culture cells (MT-4, MTT), K103N mutant; assay type: cell-based
Procedure: as §1

HIV-1 mutant Y188L = test: Inhibition of viral proliferation on culture cells (MT-4, MTT), Y188L mutant; assay type: cell-based
Procedure: as §1

HIV-1 mutant Y181C = test: Inhibition of viral proliferation on culture cells (MT-4, MTT), Y181C mutant; assay type: cell-based
Procedure: as §1

[2] = target: T1, HIV-1 (recombinant) reverse transcriptase (Human immunodeficiency virus type 1 group M subtype B, UniProt P03366); test: Enzyme test: reverse transcription reaction in vitro with recombinant RT, wild type; assay type: biochemical
T1 construct: 20-50 nM HIV-1 (recombinant) reverse transcriptase
Procedure: (§2) In a final volume of 25 microlitres the following reagents were mixed: 50 mM Tris-HCl pH 7.5, 0.25 mg/ml BSA, 0.5 mM DTT, 20-50 nM HIV-1 (recombinant) reverse transcriptase, nucleotide substrate dTTP marked radioactively (^3H, 4 Ci/mmol) and nucleic acid (poly(rA)/oligo(dT)). The concentrations of dTTP and poly(rA)/oligo(dT) in standard conditions were 5 μM and 0.5 μM, respectively.
(§3) The reaction mixture is incubated 10 min. at 37° C. and 20 μl are removed and deposited on a GF/C Whatman glass fibre filter measuring 25 mm in diameter. The filters are washed 3 times for 5 min. in 5% trichloroacetic acid and once for 5 min. in absolute alcohol. After being dried, the filters are immersed in a scintillating mixture (Packard) and the acid precipitable radioactivity is measured by a scintillation counter for β-emitting isotopes (Beckman).
(§4) The dose-response curves obtained by means of samples of enzyme activity in the presence of increasing doses of inhibitor were analysed according to the equation E(%)=Emax/([…], where E(%) is the fraction of enzyme activity that is measurable in the presence of each concentration of inhibitor, Emax is the activity in the absence of an inhibitor, I is the concentration of inhibitor. The ID50 was calculated by analysing data using the GraphPad Prism graphic interpolation programme (for Macintosh).

[3] = Cytotoxicity in mock-infected MT-4 cells (MTT); assay type: cell-based; conditions: human
Procedure: as §1

HIV-1 mutant Y181L = test: Inhibition of viral proliferation on culture cells (MT-4, MTT), Y181L mutant; assay type: cell-based; conditions: Human immunodeficiency virus 1, MT4, read-out: EC50 Y181L
[4] = target: T2, reverse transcriptase containing the mutation Y181I (Human immunodeficiency virus type 1 group M subtype B, UniProt P03366, Y780I); test: Enzyme test with mutated reverse transcriptase Y181I; assay type: biochemical, HIV-1
T2 construct: cloning the gene of the mutated RT in an expression vector for prokariotic cells; made in house
Procedure: as §2, §3
(§5) In some experiments, the HIV-1 recombinant reverse transcriptase was substituted by a reverse transcriptase containing the mutations K.103N and Y181I. They were produced by cloning the gene of the mutated RT in an expression vector for prokariotic cells according to the method reported in the literature (Maga G, Amacker M, Ruel N, Hubscher U, Spadari S. Resistance to nevirapine of HIV-1 reverse transcriptase mutants: loss of stabilizing interactions and thermodynamic or steric barriers are induced by different single amino acid substitutions. J Mol Biol. Dec. 19, 1997; 274(5):738-47).
as §4

[5] = target: T3, reverse transcriptase containing the mutation K103N (Human immunodeficiency virus type 1 group M subtype B, UniProt P03366, K702N); test: Enzyme test with mutated reverse transcriptase K103N; assay type: biochemical, HIV-1
T3 construct: cloning the gene of the mutated RT in an expression vector for prokariotic cells; made in house
Procedure: as §2, §3, §5, §4

[6] = Table 1, recombinant RT wild type, read-out: ID50 WT
[7] = Table 2, enzyme test, read-out: WT
[8] = Human immunodeficiency virus 1, NL43, read-out: NL4-3 wt
[9] = Human immunodeficiency virus 1, read-out: K100N
[10] = Human immunodeficiency virus 1, read-out: Y188L
[11] = Human immunodeficiency virus 1, read-out: Y181C

Compound | CC50 at 5 days [3] [µM] | IC50 [2, 7] [µM] | IC50 [4] [µM] | activity in cell tests on wild type, in words [1] | EC50 [1, 8] [µM] | EC50 (HIV-1 mutant K103N; [9]) [µM] | IC50 [5] [µM] | EC50 (HIV-1 mutant Y188L; [10]) [µM] | EC50 (HIV-1 mutant Y181C; [11]) [µM] | other results
COc1ccc(C#CCSc2nc(C(C)c3c(Cl)cccc3Cl)c(C)c(=O)[nH]2)cc1 (racemic) [Compound 27b] | – | – | – | – | – | – | – | – | – | EC50 ([1]; Table 3, cell test, read-out: NLA-3wt): 0.5 µM; EC50 (HIV-1 mutant K103N; Table 3, cell test, read-out: K103N): > 54.5 µM; EC50 (HIV-1 mutant Y188L; Table 3, cell test, read-out: Y188L): 24.8 µM; EC50 (HIV-1 mutant Y181C; Table 3, cell test, read-out: Y181C): 33.5 µM
C=Cc1nc(SC)nc(N(C)C)c1I [Compound 6a] | – | – | – | – | – | – | – | – | – | IC50 [2, 6]: > 400 µM
C=Cc1cc(N(C)C)nc(SC)n1 [Compound 6c] | 57.4 | – | – | – | – | – | – | – | – | IC50 [2, 6]: > 400 µM; EC50 ([1]; Human immunodeficiency virus 1, NL43, MT4, read-out: EC50 NL4-3 wt): > 128 µM; EC50 (HIV-1 mutant K103N; Human immunodeficiency virus 1, MT4, read-out: EC50 K103N): > 128 µM; EC50 (HIV-1 mutant Y181L): > 128 µM
COc1ccc(/C=C/CSc2nc(Cc3c(Cl)cccc3Cl)c(C)c(=O)[nH]2)cc1 [Compound 26a] | 0.96 | 0.007 | > 20 | nanomolar and subnanomolar activity | 0.015 | > 0.96 | 9 | > 0.96 | > 0.96 | activity in cell tests on mutant K103N, in words (HIV-1 mutant K103N): micromolar and submicromolar activity; activity in cell tests on mutant Y188L, in words (HIV-1 mutant Y188L): micromolar and submicromolar activity; activity in cell tests on mutant Y181C, in words (HIV-1 mutant Y181C): micromolar and submicromolar activity
Cc1c(Cc2c(Cl)cccc2Cl)nc(SCC=Cc2ccc([N+](=O)[O-])cc2)[nH]c1=O [Compound 26b] | > 10.8 | 3.81 | > 20 | – | > 10.8 | > 10.8 | > 20 | > 10.8 | > 10.8 | –
CCc1c(Cc2c(Cl)cccc2Cl)nc(SCC=Cc2ccc(C#N)cc2)[nH]c1=O [Compound 26c] | > 54.8 | 0.188 | – | – | 1.73 | > 54.8 | – | – | – | Y181C, % at given concentration (HIV-1 mutant Y181C; Table 2, at 54.82): 41% at
Cc1c(Cc2c(Cl)cccc2Cl)nc(SCC=Cc2ccc(N(C)C)cc2)[nH]c1=O [Compound 26d] | > 54.4 | 0.788 | – | – | > 54.4 | > 54.4 | – | > 54.4 | > 54.4 | –
CCc1c(Cc2c(Cl)cccc2Cl)nc(SCC=Cc2ccc(OC)cc2)[nH]c1=O [Compound 26e] | 0.19 | 0.056 | > 20 | nanomolar and subnanomolar activity | 0.0015 | > 0.19 | > 20 | > 0.19 | > 0.19 | –
CCc1c(Cc2c(Cl)cccc2Cl)nc(SCC=Cc2ccc([N+](=O)[O-])cc2)[nH]c1=O [Compound 26f] | – | 2.5 | > 20 | – | – | – | > 20 | – | – | –
COc1ccc(C=CCSc2nc(C(C)c3c(Cl)cccc3Cl)c(C)c(=O)[nH]2)cc1 (stereo not drawn) [Compound 26g] | > 10.8 | 0.018 | > 20 | nanomolar and subnanomolar activity | 0.009 | 2.47 | > 20 | 1.26 | 3.6 | –
Cc1c(C(C)c2c(Cl)cccc2Cl)nc(SCC=Cc2ccc([N+](=O)[O-])cc2)[nH]c1=O (stereo not drawn) [Compound 26h] | – | 0.102 | > 20 | – | – | – | > 20 | – | – | –
Cc1c(Cc2c(F)cccc2F)nc(SCC=Cc2ccc([N+](=O)[O-])cc2)[nH]c1=O [Compound 26i] | 11.7 | 11.9 | > 20 | – | 0.26 | > 11.7 | > 20 | > 11.7 | > 11.7 | –
COc1ccc(C=CCSc2nc(Cc3c(F)cccc3F)c(C)c(=O)[nH]2)cc1 [Compound 26l] | 3.93 | 0.25 | > 20 | nanomolar and subnanomolar activity | 0.043 | > 3.93 | > 20 | > 3.93 | > 3.93 | –
Cc1c(C(C)c2c(F)cccc2F)nc(SCC=Cc2ccc([N+](=O)[O-])cc2)[nH]c1=O (stereo not drawn) [Compound 26m] | > 11.3 | 0.283 | > 20 | – | 0.14 | > 11.3 | > 20 | > 11.3 | > 11.3 | –
COc1ccc(C=CCSc2nc(C(C)c3c(F)cccc3F)c(C)c(=O)[nH]2)cc1 (stereo not drawn) [Compound 26n] | > 11.7 | 0.292 | > 20 | nanomolar and subnanomolar activity | 0.0002 | 0.26 | 3.7 | 0.07 | 0.13 | activity in cell tests on mutant K103N, in words (HIV-1 mutant K103N): micromolar and submicromolar activity; activity in cell tests on mutant Y188L, in words (HIV-1 mutant Y188L): micromolar and submicromolar activity; activity in cell tests on mutant Y181C, in words (HIV-1 mutant Y181C): micromolar and submicromolar activity
Cc1c(C(C)c2c(F)cccc2F)nc(SCC=Cc2ccc(C#N)cc2)[nH]c1=O (stereo not drawn) [Compound 26o] | > 59.1 | 0.161 | – | – | 0.14 | > 59.1 | – | > 59.1 | > 59.1 | –
CCc1c(C(C)c2c(F)cccc2F)nc(SCC=Cc2ccc(OC)cc2)[nH]c1=O (stereo not drawn) [Compound 26p] | 5.54 | 0.016 | > 20 | nanomolar and subnanomolar activity | 0.0002 | 1.02 | 0.4 | 0.63 | 0.7 | activity in cell tests on mutant K103N, in words (HIV-1 mutant K103N): micromolar and submicromolar activity; activity in cell tests on mutant Y188L, in words (HIV-1 mutant Y188L): micromolar and submicromolar activity; activity in cell tests on mutant Y181C, in words (HIV-1 mutant Y181C): micromolar and submicromolar activity
CCc1c(C(C)c2c(F)cccc2F)nc(SCC=Cc2ccc([N+](=O)[O-])cc2)[nH]c1=O (stereo not drawn) [Compound 26q] | 5.75 | 0.009 | > 20 | nanomolar and subnanomolar activity | 0.0004 | > 5.75 | > 20 | 1.94 | > 5.75 | –
CCc1c(C(C)c2c(F)cccc2F)nc(SCC=Cc2ccc(C#N)cc2)[nH]c1=O (stereo not drawn) [Compound 26r] | 27.2 | 0.048 | – | – | 0.59 | > 27.2 | – | > 27.2 | > 27.2 | –
Cc1c(Cc2c(F)cccc2F)nc(SCC#Cc2ccc([N+](=O)[O-])cc2)[nH]c1=O [Compound 27a, 6-(2,6-Difluorobenzyl)-2-(3-(4-nitrophenyl)-propynylsulfanyl)-5-methylpyrimidine-4(3H)-one] | > 58.6 | – | – | – | – | – | – | > 58.6 | > 58.6 | IC50 ([2]; Table 3, enzyme test, read-out: WT): 0.416 µM; EC50 ([1]; Human immunodeficiency virus 1, NL43, read-out: NLA-3wt): 40.1 µM; EC50 (HIV-1 mutant K103N; Human immunodeficiency virus 1, read-out: K103N): > 58.6 µM
C=Cc1cc(N(CC)CC)nc(S(C)(=O)=O)n1 [MB3B, reference compound] | – | – | > 400 | – | – | – | > 400 | – | – | IC50 [2, 6]: 21.3 µM

— patent US20100292260A1, “6-VINYL PYRIMIDINE AND PYRIMIDINONE DERIVATIVES AND THE USE THEREOF” (priority 2005, published 2010)
